According to US12528837B2, “Aryl substituted polymyxin derivatives” (priority 2018, dated 2026):
≈ marks a conversion by molar mass, not a printed value. Like-named read-outs stand apart in the source and are kept apart here. Marks after values point to notes of the source that are not given here. *1 amine or outer side, *2 acyl side, *3 side chain or, on linkers, in order; H or OH if unused. Where a SMILES comes first, the peptide text is derived from it. Bridges are numbered along the chain shown (N, C = ends). [ ]: non-standard residue; d: D form. The star is where a group is joined. GABA(3R-Bn) = O=C(C[C@H](CN[*:1])Cc1ccccc1)[*:2]; X17 = CC(C)C[C@@H]1CNC[C@@H](C(=O)*)C1; X3 = CC(C)c1cccc([C@@H](CN)CC(=O)*)c1; X1 = NC[C@@H](CC(=O)*)c1cccc(Cl)c1; Dab = NCC[C@H](N)C(=O)O; Abu = CC[C@H](N)C(=O)O; Dap = NC[C@H](N)C(=O)O

Columns and labels:
[1] = Renal toxicity grading by urinary biomarkers (Table A); format: in vivo, mouse; design: key: −: indistinguishable to vehicle control; ++++: strong response from all biomarkers; conditions: 4 doses 8 h apart at 25 mg free base/kg/dose or 4 days at 17.2 mg free base/kg/dose; urine 16-24 h
[2] = tested on: HK-2 cells; assay: In vitro renal cell toxicity assay (HK-2); format: cell-based
Method in brief: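 HK-2 cells seeded 7,500/well, adhered overnight, then exposed to compound for 24 h at 37° C, 5% CO2, with 5% water and 0.5% DMSO. Background-subtracted, vehicle-normalised dose-response fitted with bottom fixed at zero; IC50 reported relative to PMB in the same run, median where repeated.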

[3] = Kidney drug level after subcutaneous dose in mouse; format: in vivo; conditions: for Drug Level in Kidney 4 h / Drug Level in Kidney 16 h / tissue level at time at 4 h: in vivo; for Drug Level in Kidney 4 h / Drug Level in Kidney 16 h: sc, 17.2 mg/kg; for tissue level at time at 4 h: mice, 17.2 mg/kg free base sc, read-out: 4 hr kidney level; for 4 hr kidney level/rel. cytotoxicity: ratio of 4 h kidney level to HK-2 IC50 relative to PMB
Method in brief: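 Mice were euthanised four hours after subcutaneous dosing. Both kidneys were trimmed, weighed, snap-frozen, then homogenised with zirconium oxide beads. After centrifugation (13,000 rpm, 6 °C, 10 min), supernatants were analysed by LC-MS-MS.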

[4] = Renal toxicity in mice, 25 mg/kg sc four doses at 8 hr intervals, biomarkers and histopathology; format: in vivo, mouse; conditions: sc 25 mg free base/kg; for Kidney histopathology: signs of degeneration or regeneration: mice (n=6)
Procedure: (§1) After the fourth dose animals were transferred into individual metabolic cages and urine collected for 24 hours for determination of urinary biomarkers. After collecting urine mice were euthanised and the kidneys harvested for histopathology.

[5] = tested on: K. pneumoniae ATCC 13822; format: cell-based; conditions: cation-adjusted Mueller-Hinton Broth, 18-20 h, 35° C.
Procedure: (§2) The inoculum was prepared by making a direct suspension of isolated colonies (selected from an 18-24 hour Mueller-Hinton agar plate) adjusted to the 0.5 McFarland standard. […] The assays were performed in duplicate. […] The MIC values are quoted in μg/mL.

[6] = tested on: E. coli ATCC 25922; format: cell-based; conditions: cation-adjusted Mueller-Hinton Broth, 18-20 h, 35° C.
Procedure: as §2

[7] = tested on: A. baumannii ATCC BAA-747; format: cell-based; conditions: cation-adjusted Mueller-Hinton Broth, 18-20 h, 35° C.
Procedure: as §2

[8] = tested on: P. aeruginosa CCUG 59347; format: cell-based
Method in brief: (§3)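 Inoculum was a direct suspension of isolated colonies from an 18-24 hour Mueller-Hinton agar plate, adjusted to the 0.5 McFarland standard. Assays ran in duplicate. MICs are in μg/mL; compounds tested more than once are reported as the median.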

[9] = tested on: E. coli CA58; format: cell-based
Method in brief: as §3

[10] = tested on: K. pneumoniae CA64; format: cell-based
Method in brief: as §3

[11] = Renal toxicity in mice, 17.2 mg/kg sc three times per day, urinary biomarkers; format: in vivo, mouse
Procedure: Starting immediately after the first dose on day 4, mice were transferred to individual metabolic cages and urine was collected over the following 24 hours for determination of biomarker levels (albumin, cystatin C, KIM-1).
PMB values show the range from 4 experiments and colistin from 2 experiments.
Elevation of albumin, cystatin C or KIM-1 in the urine are signs of renal damage.

[12] = Renal toxicity in Cynomolgus monkey, iv infusion 7 days; format: in vivo; conditions: Cynomolgus monkey (n=3), 20 mg/kg/dose, 3 times per day, 7 days
Procedure: In a separate experiment male monkeys (n=3) were dosed with PMB for the same period at 4 mg/kg/dose. In both experiments control animals were dosed 3 times per day with saline.
At the end of the 7 day period blood was sampled and the serum levels of blood urea nitrogen and creatinine determined as indicators of renal damage.
Kidneys were harvested at the end of the 7 day dosing period and examined microscopically.

[13] = tested on: A. baumannii IHMA 851735 (OXA-23); format: cell-based; conditions: IHMA 851735 (OXA-23)
Procedure: (§4) MIC values (μg/mL) were determined by broth microdilution under CLSI conditions.

[14] = tested on: P. aeruginosa ATCC 27853; format: cell-based; conditions: ATCC 27853
Procedure: as §4

[15] = tested on: K. pneumoniae IHMA 580884; format: cell-based; conditions: IHMA 580884
Procedure: as §4

[16] = tested on: E. coli IHMA 940398; format: cell-based; conditions: IHMA 940398
Procedure: as §4

[17] = tested on: K. pneumoniae IHMA 520329 (SHV-12, KPC-2); format: cell-based; conditions: IHMA 520329 (SHV-12, KPC-2)
Procedure: as §4

[18] = tested on: P. aeruginosa IHMA 517175; format: cell-based; conditions: IHMA 517175
Procedure: as §4

[19] = tested on: P. aeruginosa IHMA 644636; format: cell-based; conditions: IHMA 644636
Procedure: as §4

[20] = tested on: A. baumannii IHMA 517303; format: cell-based; conditions: IHMA 517303
Procedure: as §4

[21] = tested on: E. coli CDF-1 (MCR-1); format: cell-based; conditions: CDF-1 (MCR-1)
Procedure: as §4

[22] = tested on: A. baumannii NCTC 13301 (OXA-23); format: cell-based; conditions: NCTC 13301
Procedure: as §4

[23] = tested on: P. aeruginosa ATCC 27853; format: cell-based; conditions: ATCC 27853; remark: listed apart in the source
Procedure: as §2

[24] = tested on: A. baumannii NCTC 13424; format: cell-based
Procedure: as §2

[25] = Renal toxicity in mice, separate experiment Example 17 vs PMB; format: in vivo, mouse; conditions: sc 25 mg free base/kg, four doses at 8 hr intervals
Procedure: as §1
In a separate experiment Example 17 was compared with PMB.

[26] = IC50 relative to PMB in the same experiment, 24 h
[27] = cation-adjusted Mueller-Hinton Broth, 18-20 h, 35° C.
[28] = mice, sc three times per day 17.2 mg free base/kg, urine 24 h from day 4, geometric mean

Molecule: CC(C)C[C@@H]1CNC[C@@H](C(=O)N[C@H](C(=O)N[C@@H](CN)C(=O)N[C@H]2CCNC(=O)[C@H]([C@@H](C)O)NC(=O)[C@H](CCN)NC(=O)[C@H](CCN)NC(=O)[C@H](CC(C)C)NC(=O)[C@@H](CC(C)C)NC(=O)[C@H](CCN)NC2=O)[C@@H](C)O)C1 [Reference Example D77, reference compound] (X17-T[Dap][Dab][Dab][dL]L[Dab][Dab]T; lactam 3-C)
- Renal toxicity (grade from urinary KIM-1, albumin, cystatin C) [1]: ++++
- Cytotoxicity (measured IC50 relative to that recorded for Polymyxin B) [2]: 23**
- Drug Level in Kidney 4 h ([3]; mouse): 516 µg/g kidney
- Drug Level in Kidney 16 h ([3]; mouse): 264 µg/g kidney

Molecule: CC(C)C[C@@H]1NC(=O)[C@@H](Cc2ccccc2)NC(=O)[C@H](CCN)NC(=O)[C@@H](NC(=O)[C@H](CN)NC(=O)[C@@H](NC(=O)C[C@H](CN)Cc2ccccc2)[C@@H](C)O)CCNC(=O)[C@H]([C@@H](C)O)NC(=O)[C@H](CCN)NC(=O)[C@H](CCN)NC1=O [Example 9, (R)-4-amino-3- benzylbutanoyl-Thr- Dap-Cyclo[Dab-Dab- DPhe-Leu-Dab-Dab- Thr). Isomer 1] ({GABA(3R-Bn)}-T[Dap][Dab][Dab][dF]L[Dab][Dab]T; lactam 3-C)
- HK-2 rel to PMB [2, 26]: 12.0
- Drug Level in Kidney (μg/g kidney, 4 h) ([3]; mouse, 17.2 mg/kg sc): 159 μg/g kidney
- Drug level in kidney ([3]; mouse, 17.2 mg/kg sc, 4 hours): 159 µg/g
- tissue level at time at 4 h ([3]; mouse): 159000 ng/g
- 4 hr kidney level/rel. cytotoxicity [3]: 13
- Kidney histopathology: signs of degeneration or regeneration [4]: None of the animals
- Albumin, urine ([4]; mice, urine 24 h): 749 μg/24 h
- Cystatin C, urine ([4]; mice, urine 24 h): 754 ng/24 h
- KIM-1, urine ([4]; mice, urine 24 h): 2 ng/24 h
- MIC K. pneumoniae ATCC 13822 [5]: 0.25 µg/mL (≈ 0.222 µM)
- MIC E. coli ATCC 25922 [6]: 0.25 µg/mL (≈ 0.222 µM)
- MIC A. baumannii ATCC BAA-747 [7]: 0.25 µg/mL (≈ 0.222 µM)
- MIC P. aeruginosa CCUG 59347 [8, 27]: 0.5 µg/mL (≈ 0.445 µM)
- MIC E. coli CA58 [9, 27]: 8 µg/mL (≈ 7.12 µM)
- MIC K. pneumoniae CA64 [10, 27]: 64 µg/mL (≈ 56.9 µM)

Molecule: CC(C)C[C@@H]1NC(=O)[C@@H](Cc2ccccc2)NC(=O)[C@H](CCN)NC(=O)[C@@H](NC(=O)[C@H](CN)NC(=O)[C@@H](NC(=O)C[C@H](CN)c2cccc(Cl)c2)[C@@H](C)O)CCNC(=O)[C@H]([C@@H](C)O)NC(=O)[C@H](CCN)NC(=O)[C@H](CCN)NC1=O [Example 5, (S)-4-amino-3-(3- chlorophenyl)butanoyl- Thr-Dap-Cyclo[Dab- Dab-DPhe-Leu-Dab- Dab-Thr]] (X1-T[Dap][Dab][Dab][dF]L[Dab][Dab]T; lactam 3-C)
- Urinary biomarkers of renal toxicity, comparison (in words) ([11]; albumin, cystatin C, KIM-1, mice 17.2 mg free base/kg three times per day): lowest levels of all 3 biomarkers
- Kidney microscopy: tubular degeneration [12]: 1 showed mild tubular degeneration and 2 showed minimal degeneration
- HK-2 rel to PMB [2]: 11.6
- MIC A. baumannii IHMA 851735 [13]: 0.25 µg/mL (≈ 0.218 µM)
- MIC P. aeruginosa ATCC 27853 [14]: 0.25 µg/mL (≈ 0.218 µM)
- MIC K. pneumoniae IHMA 580884 [15]: 16 µg/mL (≈ 14 µM)
- MIC E. coli IHMA 940398 [16]: 32 µg/mL (≈ 28 µM)
- MIC K. pneumoniae IHMA 520329 [17]: >64 µg/mL
- MIC P. aeruginosa IHMA 517175 [18]: 8 µg/mL (≈ 6.99 µM)
- MIC P. aeruginosa IHMA 644636 [19]: 32 µg/mL (≈ 28 µM)
- MIC A. baumannii IHMA 517303 [20]: >64 µg/mL
- MIC E. coli CDF-1 [21]: 8 µg/mL (≈ 6.99 µM)
- MIC A. baumannii NCTC 13301 [22]: 0.06 µg/mL (≈ 0.0524 µM)
- Drug Level in Kidney (μg/g kidney, 4 h) ([3]; mouse, 17.2 mg/kg sc): 170 μg/g kidney
- Drug Level in Kidney 4 h ([3]; mouse): 170 µg/g kidney
- Drug Level in Kidney 16 h ([3]; mouse): 19 µg/g kidney
- 4 hr kidney level/rel. cytotoxicity [3]: 15
- Kidney histopathology: signs of degeneration or regeneration [4]: None of the animals
- MIC P. aeruginosa ATCC 27853 [23]: 0.25 µg/mL (≈ 0.218 µM)
- MIC A. baumannii NCTC 13424 ([24]; NCTC 13424): 0.06 µg/mL (≈ 0.0524 µM)
- MIC P. aeruginosa CCUG 59347 ([8]; CCUG 59347): 0.25 µg/mL (≈ 0.218 µM)
- MIC E. coli CA58 ([9]; CA58): 8 µg/mL (≈ 6.99 µM)
- MIC K. pneumoniae CA64 ([10]; CA64): 16 µg/mL (≈ 14 µM)

Molecule: Colistin
- Albumin, urine [11, 28]: 2,353-2,548 μg/24 h
- Cystatin C, urine [11, 28]: 1,266-1,678 ng/24 h
- KIM-1, urine [11, 28]: 42-89 ng/24 h

Molecule: CC[C@@H]1NC(=O)[C@@H](Cc2ccccc2)NC(=O)[C@H](CCN)NC(=O)[C@@H](NC(=O)[C@H](CN)NC(=O)[C@@H](NC(=O)C[C@H](CN)c2cccc(C(C)C)c2)[C@@H](C)O)CCNC(=O)[C@H]([C@@H](C)O)NC(=O)[C@H](CCN)NC(=O)[C@H](CCN)NC1=O [Example 17] (X3-T[Dap][Dab][Dab][dF][Abu][Dab][Dab]T; lactam 3-C)
- HK-2 rel to PMB [2, 26]: 29.0
- tissue level at time at 4 h ([3]; mouse): 231000 ng/g
- Basophilic tubules (histopathology) ([25]; animals per grade): 3 normal/2 minimal
- Tubular degeneration/necrosis (histopathology) ([25]; animals per grade): All normal
- Albumin, elevation compared with vehicle control ([25]; urine): 2.7×
- Cystatin C, elevation compared with vehicle control ([25]; urine): 1.8×
- KIM-1, elevation compared with vehicle control ([25]; urine): 4.7×
- MIC A. baumannii NCTC 13424 [24, 27]: 0.06 µg/mL (≈ 0.0534 µM)
- MIC A. baumannii ATCC BAA-747 [7]: 0.06 µg/mL (≈ 0.0534 µM)
- MIC P. aeruginosa CCUG 59347 [8, 27]: 0.25 µg/mL (≈ 0.222 µM)
- MIC E. coli CA58 [9, 27]: 8 µg/mL (≈ 7.12 µM)
- MIC K. pneumoniae CA64 [10, 27]: 16 µg/mL (≈ 14.2 µM)
